Assay results reported in ChEMBL document CHEMBL4043274, “4-Hydroxy-2-pyridones: Discovery and evaluation of a novel class of antibacterial agents targeting DNA synthesis” (Bioorg Med Chem Lett, 2017).
In brackets after ≈: the same amount, converted by molar mass. Activity calls are given as the source filed them. The rule behind the calls is not given here.

Tests used:
Escherichia coli [1] = test: Antibacterial activity against wild-type Escherichia coli ATCC 25922 by CLSI M100-S17 protocol based method; format: functional
Acinetobacter baumannii = test: Antibacterial activity against Acinetobacter baumannii ATCC BAA-747 by CLSI M100-S17 protocol based method; format: functional
[2] = Inhibition of DNA gyrase-A in Escherichia coli ATCC 25922 using relaxed pBR322 DNA as substrate after 30 mins by ethidium bromide staining based agarose gel electrophoresis method
Klebsiella pneumoniae = test: Antibacterial activity against Klebsiella pneumoniae ATCC 35657 by CLSI M100-S17 protocol based method; format: functional
Staphylococcus aureus [3] = test: Antibacterial activity against wild-type Staphylococcus aureus ATCC 29213 by CLSI M100-S17 protocol based method; format: functional
Escherichia coli [4] = test: Antibacterial activity against Escherichia coli BAS849 by CLSI M100-S17 protocol based method; format: functional
Staphylococcus aureus [5] = test: Inhibition of DNA synthesis in wild-type Staphylococcus aureus ATCC 29213 at MIC; format: functional
Escherichia coli [6] = test: Antibacterial activity against wild-type Escherichia coli ATCC 25922 in presence of human serum albumin by CLSI M100-S17 protocol based method; format: functional
[7] = tested on: Escherichia coli ATCC 25922; test: (§1) Inhibition of Escherichia coli ATCC 25922 topoisomerase-4 ParC at 100 uM using kinetoplast DNA as substrate after 60 mins relative to control
Escherichia coli [8] = test: Antibacterial activity against quinolone resistant Escherichia coli SKM18 by CLSI M100-S17 protocol based method; format: functional
[9] = Selectivity ratio of MIC for quinolone resistant Escherichia coli SKM18 to MIC for wild-type Escherichia coli ATCC 25922; format: functional
Escherichia coli [10] = test: Ratio of MIC in presence to absence of HSA for wild-type Escherichia coli ATCC 25922; format: functional
[11] = Selectivity ratio of MIC for wild-type Escherichia coli ATCC 25922 to MIC for Escherichia coli BAS849; format: functional
Escherichia coli [12] = test: Antibacterial activity against wild-type Escherichia coli ATCC 25922 infected in iv dosed CD-1 mouse assessed as mouse survival treated for 1 hr followed by reinfection with bacteria measured at 96 hrs post infection; format: functional; conditions: ATCC 25922, iv, read-out: PD50
[13] = Protein binding in mouse plasma; format: ADME, cell-free; conditions: read-out: PPB (converted)
[14] = Terminal half life in Sprague-Dawley rat at 10 mg/kg, iv administered as single dose; format: ADME, organism-based; conditions: in vivo, read-out: beta t1/2 (converted)
Escherichia coli [15] = test: Antibacterial activity against clinical isolates of Escherichia coli by broth microdilution assay; format: functional
[16] = Volume of distribution at steady state in Sprague-Dawley rat at 10 mg/kg, iv administered as single dose; format: ADME, organism-based; conditions: in vivo, read-out: Vdss
[17] = Oral bioavailability in Sprague-Dawley rat; format: ADME, organism-based; conditions: in vivo
Staphylococcus aureus [18] = test: Antibacterial activity against multidrug resistant Staphylococcus aureus by broth microdilution assay; format: functional
[19] = as §1
Rattus norvegicus = test: Dose normalized AUC (0 to 24 hrs) in Sprague-Dawley rat at 10 mg/kg, iv administered as single dose; format: ADME, organism-based; conditions: in vivo
Staphylococcus aureus [20] = test: Inhibition of protein synthesis in wild-type Staphylococcus aureus ATCC 29213 at 1.6 ug/ml; format: functional

SMILES | MIC (Escherichia coli [1]) [µg/mL] | MIC (Escherichia coli [4]) [µg/mL] | MIC (Escherichia coli [6]) [µg/mL] | MIC (Escherichia coli [8]) [µg/mL] | Ratio (Escherichia coli [10]) | also measured
CCc1c(-c2ccc(N(C)C)cc2)[nH]c(=O)c(C(=O)O)c1O | 0.78 to 0.8 (≈ 2.58 to 2.65 µM) | 0.03 (≈ 0.0992 µM) | > 25 | 15.6 (≈ 51.6 µM) |  | MIC (Acinetobacter baumannii): 6.3 µg/mL (≈ 20.8 µM); IC50 [2]: 11 µM; MIC (Klebsiella pneumoniae): 3.9 µg/mL (≈ 12.9 µM); MIC (Staphylococcus aureus [3]): 3.1 µg/mL (≈ 10.3 µM); inhibition (Staphylococcus aureus [5]): Active; inhibition [7]: 30%
CCc1c(-c2ccc(N(C)C)c(OC)c2)[nH]c(=O)c(C(=O)O)c1O | > 12.5 | 6.3 (≈ 19 µM) |  |  |  | 
CCc1c(-c2ccc(N(C)C)cc2C)[nH]c(=O)c(C(=O)O)c1O | > 12.5 | 6.3 (≈ 19.9 µM) |  |  |  | 
CCc1c(-c2ccc(N3CCC(N4CCCC4)C3)cc2)[nH]c(=O)c(C(=O)O)c1O (configuration not stated) | 1.6 (≈ 4.03 µM) | 0.19 (≈ 0.478 µM) | 3.1 | 6.3 (≈ 15.9 µM) | <4 | Selectivity ratio [9]: < 4; MIC (Acinetobacter baumannii): 3.1 µg/mL (≈ 7.8 µM); MIC (Klebsiella pneumoniae): 1.6 µg/mL (≈ 4.03 µM)
CCc1cc(C(=O)O)c(=O)n(C)c1-c1ccc(N(C)C)cc1 | > 62.5 | 1.6 (≈ 5.33 µM) |  | > 62.5 |  | 
CCc1cc(C(=O)O)c(=O)[nH]c1-c1ccc(N(C)C)cc1 | 0.78 (≈ 2.72 µM) | 0.03 (≈ 0.105 µM) |  | > 62.5 |  | 
CC(C)c1c(-c2ccc(N(C)C)cc2)[nH]c(=O)c(C(=O)O)c1O | 12.5 (≈ 39.5 µM) | 0.12 (≈ 0.379 µM) |  | > 62.5 |  | 
CCc1c(-c2ccc(N3CC=CC3)cc2)[nH]c(=O)c(C(=O)O)c1O | 0.78 (≈ 2.39 µM) | 0.01 (≈ 0.0306 µM) | 32.2 | > 62.5 |  | Selectivity ratio [11]: > 50
CCc1c(-c2ccc(N(C)C)c(F)c2)[nH]c(=O)c(C(=O)O)c1O | 7.8 (≈ 24.4 µM) | 0.39 (≈ 1.22 µM) |  |  |  | 
CCc1c(-c2ccc(N3CC4CCCNC4C3)cc2)[nH]c(=O)c(C(=O)O)c1O (configuration not stated) | 0.78 (≈ 2.03 µM) | 0.19 (≈ 0.496 µM) | 1.6 | 3.1 (≈ 8.08 µM) | <4 | ED50 (Escherichia coli [12]): > 20 mg/kg; MIC (Acinetobacter baumannii): 1.6 µg/mL (≈ 4.17 µM); fraction unbound [13]: 0.27; half-life [14]: 3.9 h; MIC (Klebsiella pneumoniae): 0.8 µg/mL (≈ 2.09 µM); MIC (Escherichia coli [15]): 0.125 to 2 µg/mL (≈ 0.326 to 5.22 µM); MIC50 (Escherichia coli [15]): 0.5 µg/mL (≈ 1.3 µM); MIC90 (Escherichia coli [15]): 2 µg/mL (≈ 5.22 µM); Vd [16]: 2.9 L/kg; bioavailability [17]: 8%; MIC (Staphylococcus aureus [18]): 0.125 to 16 µg/mL (≈ 0.326 to 41.7 µM); MIC50 (Staphylococcus aureus [18]): 0.5 µg/mL (≈ 1.3 µM); MIC90 (Staphylococcus aureus [18]): 8 µg/mL (≈ 20.9 µM); IC50 [19]: 15.7 µM; AUC/dose (Rattus norvegicus): 13.9 µg·h/mL
CCn1cc(C(=O)O)c(=O)cc1-c1ccc(N(C)C)cc1 | 6.3 (≈ 22 µM) | 0.39 (≈ 1.36 µM) |  | > 62.5 |  | 
CCc1c(-c2ccc(N3CCCC3)cc2)[nH]c(=O)c(C(=O)O)c1O | 1.6 (≈ 4.87 µM) | 0.03 (≈ 0.0914 µM) | > 62.5 | > 62.5 | >30 - 40 | Selectivity ratio [11]: > 50
CCc1c(-c2ccc(N3CCC(N(C)C)C3)cc2)[nH]c(=O)c(C(=O)O)c1O (configuration not stated) | 0.78 (≈ 2.1 µM) | 0.19 (≈ 0.512 µM) | 3.1 | 3.1 (≈ 8.35 µM) | <4 | Selectivity ratio [9]: < 4; MIC (Acinetobacter baumannii): 1.6 µg/mL (≈ 4.31 µM); MIC (Klebsiella pneumoniae): 1.6 µg/mL (≈ 4.31 µM)
CN(C)c1ccc(-c2[nH]c(=O)c(C(=O)O)c(O)c2C2CCCCC2)cc1 | > 62.5 | 6.25 (≈ 17.5 µM) |  |  |  | 
CCc1c(-c2ccc(N3CCC(C4(N(C)C)CC4)C3)cc2)[nH]c(=O)c(C(=O)O)c1O (configuration not stated) | 6.3 (≈ 15.3 µM) | 0.04 (≈ 0.0972 µM) |  | > 12.5 | 4 - 8 | MIC (Acinetobacter baumannii): > 25 µg/mL; MIC (Klebsiella pneumoniae): 12.5 µg/mL (≈ 30.4 µM)
CCc1c(-c2ccc(N(C)C)cc2OC)[nH]c(=O)c(C(=O)O)c1O | > 12.5 | 6.3 (≈ 19 µM) |  |  |  | 
CCc1c(-c2ccc(OC)cc2)[nH]c(=O)c(C(=O)O)c1O | 7.8 (≈ 27 µM) | ≤ 0.2 |  |  |  | 
CCc1c(-c2ccc(N3CCC(C)(CN)C3)cc2)[nH]c(=O)c(C(=O)O)c1O (configuration not stated) | 1.6 (≈ 4.31 µM) | 0.39 (≈ 1.05 µM) |  | 6.3 (≈ 17 µM) | 4 - 8 | 
CCc1c(O)c(C(=O)O)c(=O)n(Cc2ccccc2)c1-c1ccc(N(C)C)cc1 | > 12.5 |  |  |  |  | inhibition (Staphylococcus aureus [20]): Active; MIC (Staphylococcus aureus [3]): 1.6 µg/mL (≈ 4.08 µM); inhibition (Staphylococcus aureus [5]): Active
CCOC(=O)c1c(O)c(CC)c(-c2ccc(N(C)C)cc2)[nH]c1=O | > 12.5 | > 12.5 |  |  |  | 
CCc1c(-c2ccc(N3CCC(C4(N)CCC4)C3)cc2)[nH]c(=O)c(C(=O)O)c1O (configuration not stated) | 1.6 (≈ 4.03 µM) | 0.39 (≈ 0.981 µM) | 12.5 | 0.19 (≈ 0.478 µM) | 4 - 8 | MIC (Acinetobacter baumannii): 3.1 µg/mL (≈ 7.8 µM); MIC (Klebsiella pneumoniae): 1.6 µg/mL (≈ 4.03 µM)
O=C(O)c1cn(C2CC2)c2cc(N3CCNCC3)c(F)cc2c1=O [CIPROFLOXACIN] |  |  |  |  |  | MIC (Staphylococcus aureus [18]): 0.125 to 64 µg/mL (≈ 0.377 to 193 µM); MIC50 (Staphylococcus aureus [18]): 64 µg/mL (≈ 193 µM); MIC90 (Staphylococcus aureus [18]): > 64 µg/mL
